Counter-ions that a name gives are not always drawn.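 Five concentrations, 48 hours, 96-well plates. At the GI50, growth is halved.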 Activity calls are given as the source filed them. Rule as the data show it: active = GI50 up to about 1.1 µM and inactive = higher.
Assays:
Assay in all cases: NCI anticancer screen, dose series, 48 h
786-0 = system: 786-0
CAKI-1 = system: CAKI-1
CCRF-CEM = system: CCRF-CEM
HCT-116 = system: HCT-116
HOP-92 = system: HOP-92
HT-29 = system: HT-29
M14 = system: M14
NCI-H226 = system: NCI-H226
NCI-H522 = system: NCI-H522
NCI/ADR-RES = system: NCI/ADR-RES
OVCAR-5 = system: OVCAR-5
PC-3 = system: PC-3
RXF 393 = system: RXF 393
SK-MEL-28 = system: SK-MEL-28
SK-MEL-5 = system: SK-MEL-5
SNB-19 = system: SNB-19
SR = system: SR
T47D = system: T47D
U-251 = system: U-251
UACC-257 = system: UACC-257

Measured: GI50

COc1ccc(/C=C(\C#N)c2nc(N)nc(N3N=C(C)CC3(C)C)n2)c(O)c1
inactive: 786-0 16.4 µM | CAKI-1 17.2 µM | CCRF-CEM 40.2 µM | HCT-116 17.6 µM | HOP-92 31.5 µM | HT-29 19.2 µM | M14 20.3 µM | NCI-H226 16.7 µM | NCI-H522 21.7 µM | NCI/ADR-RES 31 µM | OVCAR-5 15.3 µM | PC-3 37.9 µM | RXF 393 16.1 µM | SK-MEL-28 14.5 µM | SK-MEL-5 15.2 µM | SNB-19 35.1 µM | SR 16.9 µM | T47D 15.9 µM | U-251 26.7 µM | UACC-257 24 µM

O=[N+]([O-])c1cccc(-c2cn3c(n2)Cc2ccccc2C3)c1
inactive: 786-0 > 100 µM | CAKI-1 15.6 µM | CCRF-CEM 15.9 µM | HCT-116 23.9 µM | HOP-92 > 100 µM | HT-29 12.3 µM | M14 42.4 µM | NCI-H226 > 100 µM | NCI-H522 34.4 µM | NCI/ADR-RES > 100 µM | OVCAR-5 17.8 µM | PC-3 77.4 µM | RXF 393 > 100 µM | SK-MEL-28 > 100 µM | SK-MEL-5 28.6 µM | SNB-19 > 100 µM | SR 51.4 µM | T47D 17.1 µM | U-251 39.7 µM | UACC-257 87.3 µM

CC(C)C[S+]1C2=C(CC(C)(C)CC2=O)[N-]c2ccccc21 (stereo not given)
inactive: 786-0 > 100 µM | CAKI-1 > 100 µM | CCRF-CEM > 100 µM | HCT-116 > 100 µM | HOP-92 > 100 µM | HT-29 > 100 µM | M14 > 100 µM | NCI-H226 > 100 µM | NCI-H522 > 100 µM | NCI/ADR-RES > 100 µM | OVCAR-5 > 100 µM | PC-3 > 100 µM | RXF 393 > 100 µM | SK-MEL-28 > 100 µM | SK-MEL-5 > 100 µM | SNB-19 > 100 µM | SR 11.3 µM | T47D > 100 µM | U-251 > 100 µM | UACC-257 > 100 µM

CCC(=O)/C=C/c1ccccc1
inactive: 786-0 46 µM | CAKI-1 56.1 µM | CCRF-CEM 37.2 µM | HCT-116 31.3 µM | HOP-92 > 100 µM | HT-29 43.7 µM | M14 52.8 µM | NCI-H226 > 100 µM | NCI-H522 > 100 µM | NCI/ADR-RES 47.6 µM | OVCAR-5 > 100 µM | PC-3 > 100 µM | RXF 393 73.3 µM | SK-MEL-28 54 µM | SK-MEL-5 33 µM | SNB-19 44 µM | SR 42.8 µM | T47D > 100 µM | U-251 37.9 µM | UACC-257 72.6 µM

CCOP(=O)(OCC)/C(C#N)=C/c1cccn1C
inactive: 786-0 > 100 µM | CAKI-1 > 100 µM | CCRF-CEM 25.9 µM | HCT-116 > 100 µM | HOP-92 > 100 µM | HT-29 > 100 µM | M14 > 100 µM | NCI-H226 > 100 µM | NCI-H522 > 100 µM | NCI/ADR-RES > 100 µM | OVCAR-5 > 100 µM | PC-3 > 100 µM | RXF 393 > 100 µM | SK-MEL-28 > 100 µM | SK-MEL-5 > 100 µM | SNB-19 > 100 µM | SR > 100 µM | T47D > 100 µM | U-251 > 100 µM | UACC-257 > 100 µM

CN(C)CCOC(=O)COc1ccc(Cl)cc1 [CENTROPHENOXINE HYDROCHLORIDE]
inactive: 786-0 > 100 µM | CAKI-1 > 100 µM | CCRF-CEM > 100 µM | HCT-116 > 100 µM | HOP-92 > 100 µM | HT-29 > 100 µM | M14 > 100 µM | NCI-H226 > 100 µM | NCI-H522 > 100 µM | NCI/ADR-RES > 100 µM | OVCAR-5 > 100 µM | PC-3 > 100 µM | RXF 393 > 100 µM | SK-MEL-28 > 100 µM | SK-MEL-5 > 100 µM | SNB-19 > 100 µM | SR > 100 µM | T47D > 100 µM | U-251 > 100 µM | UACC-257 > 100 µM

CC1(C)S[C@@H]2[C@H](NC(=O)C3(N)CCCCC3)C(=O)N2[C@H]1C(=O)O [CYCLACILLIN]
inactive: 786-0 > 100 µM | CAKI-1 > 100 µM | CCRF-CEM > 100 µM | HCT-116 > 100 µM | HOP-92 > 100 µM | HT-29 > 100 µM | M14 > 100 µM | NCI-H226 > 100 µM | NCI-H522 > 100 µM | NCI/ADR-RES > 100 µM | OVCAR-5 > 100 µM | PC-3 > 100 µM | RXF 393 > 100 µM | SK-MEL-28 > 100 µM | SK-MEL-5 > 100 µM | SNB-19 > 100 µM | SR > 100 µM | T47D > 100 µM | U-251 > 100 µM | UACC-257 > 100 µM

O=S(=O)(Nc1nc2ccccc2nc1Nc1ccc2ccccc2c1)c1ccccc1
inactive: 786-0 20.3 µM | CAKI-1 27.4 µM | CCRF-CEM 20 µM | HCT-116 7.8 µM | HOP-92 5.06 µM | HT-29 11 µM | M14 9.04 µM | NCI-H226 16.7 µM | NCI-H522 5.15 µM | NCI/ADR-RES 5.73 µM | OVCAR-5 26.4 µM | PC-3 3.3 µM | RXF 393 20.4 µM | SK-MEL-28 12.1 µM | SK-MEL-5 10.9 µM | SNB-19 9.42 µM | SR 13.2 µM | T47D 5.68 µM | U-251 5.78 µM | UACC-257 26.1 µM

CCCCCCCC/C=C1\CCC(CN2CCOCC2)C1=O (stereo not given)
inactive: 786-0 1.68 µM | CAKI-1 8.87 µM | CCRF-CEM 2.79 µM | HCT-116 3.53 µM | HOP-92 16.6 µM | HT-29 6.98 µM | M14 5.37 µM | NCI-H226 17.4 µM | NCI-H522 2.69 µM | NCI/ADR-RES 3.79 µM | OVCAR-5 20.4 µM | PC-3 11.2 µM | RXF 393 12.5 µM | SK-MEL-28 9.35 µM | SK-MEL-5 10.1 µM | SNB-19 11.2 µM | SR 2.13 µM | T47D 1.85 µM | U-251 14.8 µM | UACC-257 8.67 µM

O=C1c2ccccc2C(=O)N1CC1S(=O)(=O)OCCOS1(=O)=O
inactive: 786-0 > 100 µM | CAKI-1 > 100 µM | CCRF-CEM > 100 µM | HCT-116 > 100 µM | HOP-92 > 100 µM | HT-29 > 100 µM | M14 > 100 µM | NCI-H226 > 100 µM | NCI-H522 > 100 µM | NCI/ADR-RES > 100 µM | OVCAR-5 > 100 µM | PC-3 > 100 µM | RXF 393 > 100 µM | SK-MEL-28 > 100 µM | SK-MEL-5 > 100 µM | SNB-19 > 100 µM | SR 44.1 µM | T47D > 100 µM | U-251 > 100 µM | UACC-257 > 100 µM

Reference: ChEMBL document CHEMBL1201862, “PubChem BioAssay data set” (2004)
